Source: patent publication US4786648A, “O-substituted tetrahydropyridine oxime cholinergic agents” (Warner-Lambert Company, priority 1987, dated 1988)
Read-outs that look alike come from different tables or passages of the source.

How the values were obtained:
[1] = tested on: age-related cognitive deficits; conditions: H. P. Davis, et al (1983); cited from earlier work
[2] = target: central muscarinic binding site; conditions: radio-labeled quinuclidinyl benzilate (antagonist), rat cerebral cortex
[3] = target: central muscarinic binding site; experiment: RCMD screening assay (inhibition of radio-labeled cis-methyldioxolane binding, rat cerebral cortex tissue)
Description: Similarly, in the RCMD screening assay, described more fully by T. W. Vickeroy, et al, J. Pharmacol. Exp. Ther., 229 (3): 747 (1984), rat cerebral cortex tissue was treated with radio-labeled cis-methyldioxolane,a known muscarinic binding site agonist. The concentrations of test compounds required to inhibit 50% of the binding of this muscarinic agonist were then determined.

[4] = tested on: laboratory rats given scopolamine; experiment: SIS, scopolamine induced swimming test; assay type: in vivo, rat; conditions: for minimal effective dose: Rattus norvegicus, sc, Tables 3 and 4, Subcutaneous, five minute test period, read-out: Minimal Effective Dose for Reversal of Scopolamine-Induced Swimming Hyperactivity; for reversal of scopolamine-induced swimming hyperactivity: rats given scopolamine
Description: In a second screening assay, designated SIS, the scopolamine induced swimming test, the ability of representative compounds of the present invention to reverse the hyperactive swimming behavior of laboratory rats given scopolamine was assessed. In this test, untreated rats will generally swim between 20 to 30 meters during a five minute test period. […] This swimming hyperactivity can be reversed by administration of physostigmine or the cholinergic agonist, arecoline. The effect of scopolamine is centrally mediated; the ability of a test compound to reverse the hyperactive swimming behavior induced by scopolamine is thus a measure of the central cholinergic activity of the compound.

[5] = tested on: patients clinically diagnosed as having presenile primary degenerative dementia; conditions: double blind study, Christie, et al (1981); cited from earlier work
[6] = tested on: Aged humans and nonhuman primates with decreased cognition; conditions: acetylcholinesterase inhibitor treatment; cited from earlier work
[7] = Table 1, radio-labeled cis-methyldioxolane (agonist)
[8] = Table 2, radio-labeled cis-methyldioxolane (agonist)

Question: For `Nc1ccncc1N` [3,4-diaminopyridine], which “effect on age-related cognitive deficits” value [1] is on record?
Answer: The value was “ameliorate age-related cognitive deficits”.

Question: Which IC50 ([2]; Table 1) does the source give for `CCC(=NOC)C1=CCCNC1` [Example 2, 1-(1,2,5,6-Tetrahydro-3-pyridinyl)-1-propanone, O-Methyloxime] here?
Answer: Its IC50 is 9500 nM.

Question: And the IC50 [3, 7]?
Answer: Its IC50 is 290 nM.

Question: What does the source list for `CON=CC1=CCCN(C)C1` [Example 3, 1,2,5,6-Tetrahydro-1-methyl-3-pyridinecarboxaldehyde O-Methyloxime]?
Answer: IC50 ([2]; Table 1): 1800 nM; IC50 [3, 7]: 2 nM; minimal effective dose ([4]; scopolamine 0.1 mg/kg, rats): 3.2 mg/kg

Question: For `CON=CC1=CCCNC1` [Example 4, 1,2,5,6-Tetrahydro-3-pyridinecarboxaldehyde, O-Methyl oxime], which IC50 ([2]; Table 1) is on record?
Answer: Its IC50 is 7100 nM.

Question: And the IC50 [3, 7]?
Answer: Its IC50 is 10 nM.

Question: What about the minimal effective dose ([4]; scopolamine 0.1 mg/kg, rats) of the same compound?
Answer: The minimal effective dose was 3.2 mg/kg.

Question: Which IC50 ([2]; Table 1) does the source give for `CCON=CC1=CCCN(C)C1` [Example 6, 1,2,5,6-Tetrahydro-1-methyl-3-pyridinecarboxaldehyde, O-Ethyloxime] here?
Answer: The IC50 was 10000 nM.

Question: What about the IC50 [3, 7] of the same compound?
Answer: Its IC50 is 28 nM.

Question: Which IC50 ([2]; Table 1) does the source give for `CCON=CC1=CCCNC1` [Example 7, 1,2,5,6-Tetrahydro-3-pyridinecarboxaldehyde, O-ethyloxime] here?
Answer: Its IC50 is 1000 nM.

Question: What about the IC50 [3, 7] of the same compound?
Answer: The IC50 was 42 nM.

Question: With `CON=C(C)C1=CCCNC1` [Example 8, 1-(1,2,5,6-Tetrahydro-3-pyridinyl)ethanone, O-methyloxime] as the compound, how does the IC50 ([2]; Table 1) read?
Answer: The IC50 was 5800 nM.

Question: What about the IC50 [3, 7] of the same compound?
Answer: Its IC50 is 28 nM.

Question: Which minimal effective dose ([4]; scopolamine 0.1 mg/kg, rats) does the source give for `CON=C(C)C1=CCNCC1` [Example 13, 1-(1,2,3,6-Tetrahydro-4-pyridinyl)ethanone, O-Methyloxime] here?
Answer: Its minimal effective dose is 10 mg/kg.

Question: Which results are given for `CON=CC1=CCN(C)CC1` [Example 14, 1,2,3,6-Tetrahydro-1-methyl-4-pyridinecarboxaldehyde, O-Methyloxime]?
Answer: IC50 ([2]; Table 2): > 1 nM; IC50 [3, 8]: > 0.1 nM; minimal effective dose ([4]; scopolamine 0.1 mg/kg, rats): 32 mg/kg

Question: Which IC50 ([2]; Table 2) does the source give for `CON=CC1=CCNCC1` [Example 15, 1,2,3,6-Tetrahydro-4-pyridinecarboxaldehyde, O-Methyloxime] here?
Answer: The IC50 was < 1 nM.

Question: What about the IC50 [3, 8] of the same compound?
Answer: The IC50 was > 0.1 nM.

Question: With `COC(=O)C1=CCCN(C)C1` [arecoline, methyl ester of 1,2,5,6-tetrahydro-1-methyl-3-pyridinecarboxylic acid, reference compound] as the compound, how does the “reversal of scopolamine-induced swimming hyperactivity” value [4] read?
Answer: Its value is “reversed”.

Question: And the “improvement in a test of picture recognition” value [5]?
Answer: The value was “Significant improvement”.

Question: Which results are given for `CNC(=O)Oc1ccc2c(c1)[C@]1(C)CCN(C)[C@@H]1N2C` [physostigmine, reference compound]?
Answer: memory in aged humans and nonhuman primates with decreased cognition [6]: improved memory; reversal of scopolamine-induced swimming hyperactivity [4]: reversed

Question: With `CN1[C@@H]2C[C@@H](OC(=O)[C@H](CO)c3ccccc3)C[C@H]1[C@@H]1O[C@@H]12` [scopolamine, reference compound] as the compound, how does the “increase of swimming distance above baseline values” ([4]; scopolamine 0.1 mg/kg, rats) read?
Answer: The value was 75-125%.
